How the values were obtained:
[1] = tested on: pig islet xenograft in Lewis rats; assay: Immunohistochemical analysis of pig islet xenograft, non-diabetic recipients (Example 1); assay type: in vivo; design: key to Insulin staining of graft: 0 = absent; + = single cell only; ++ = cell groups; +++ = large cell groups; key to OX33 (B cells) leukocytic infiltration (IHC) / ED1 (CD68) leukocytic infiltration (IHC) / CD3 (Tcells) leukocytic infiltration (IHC) / CD8 leukocytic infiltration (IHC) / CD4 leukocytic infiltration (IHC): 0 = absent; + = single or few; ++ = moderate; +++ = plenty; conditions: non-diabetic Lewis rats, 2,000 IE pig islets, day +12 post transplant
Excerpt: Pancreata were removed from donor outbred female pigs, >2 years old, by standard surgical technique. Following removal, pancreata were perfused with Liberase HI (Roche Diagnostics Corp., Indianapolis, Ind., U.S.A., Cat. No. 1666720) for intraductal distension. Islet cells were dissociated from the perfused pancreata by the automated method. Cleaved islets were separated from non-islet tissue by continuous OptiPrep gradients (Accurate Chemical and Scientific Corp., Westbury, N.Y., U.S.A., Cat. No. AN-1030061) on a COBE 2991 cell separator (Gambro BCT International, Lakewood, Colo., U.S.A.). The resulting free floating, purified islet cells were cultured in M199 medium supplemented with 20% donor pig serum for 48 hours at 37° C.
Transplantation was conducted by standard surgical technique. Briefly, the recipient animals, non-diabetic inbred male Lewis rats weighing 250-270 grams, were anesthetized with Telazol 0.20 mg/kg BW, administered i.m. In addition, the analgesic buprinorphine was administered s.c. to the recipient animals. Transplantation was conducted by making a left flank incision on the recipient, into which 2,000 donor islet equivalents (IE) were injected under the left kidney capsule via PE-50 tubing according to standard procedure.
(§1) In this study, recipients were administered the following immunosuppressive drugs: anti-CD40L mAb AH.F5 (Biogen, Inc., Cambridge, Mass., U.S.A.; 12 mg/kg BW, administered i.p. on day—1, 0, 1, 7, and then twice weekly); non-depleting anti-CD4 mAb RIB 5/2 (20 mg/kg BW, administered i.p. on day—1, 0, 1, 2, 3, 5, and then twice weekly); Ha4/8, a non-specific control to anti-CD40L (12 mg/kg BW, administered i.p. on day—1, 0, 1, 7, and then twice weekly); and FK-506 (Prograf, Fujisawa, Inc.; diluted to 1.25 mg/ml in sterile water, 0.3 mg/kg BW, administered i.m. daily from day—2, i.e., 2 days prior to transplant).
Animals were sacrificed by intracardiac exsanguination after ether anesthesia on day +12 post transplant for histological analysis of the graft. Kidneys bearing xenografts were harvested, snap frozen in liquid nitrogen and stored at −70° C.
The following primary Abs were used for immunohistochemical analysis: W3/24 (anti-CD4; available from Pharmingen) W3/13 (anti-CD3; available from Pharmingen); OX-8 (anti-CD8; available from Pharmingen); NK1.2.3 (anti-NK cell; available from Pharmingen); OX-33 (anti-B cell; available from Serotec); ED1 (anti-CD68/macrophages; available from Serotec); and insulin from Dako. The immunohistochemical analysis was visualized by an avidin-biotin-peroxidase complex method and AEC as chromogen. In the case of a positive immunoreaction, a red-brown precipitate developed.

[2] = tested on: Lewis rats; assay: Toxicity / body weight of recipients (Example 1); assay type: in vivo; conditions: when FK506 (0.3 mg/kg BW) was added, 12 days follow up
Description: as §1
Control animals increased on average 15% in weight. All antibody treated animals (alone or in combination, but without FK506) increased weight parallel to untreated controls. […] This toxicity is significant, considering that the follow up was only 12 days and that the dose of FK506 (0.3 mg/kg BW) is equal or lower than in studies reporting no toxicity.

Compound: C=CC[C@@H]1/C=C(\C)C[C@H](C)C[C@H](OC)[C@H]2O[C@@](O)(C(=O)C(=O)N3CCCC[C@H]3C(=O)O[C@H](/C(C)=C/[C@@H]3CC[C@@H](O)[C@H](OC)C3)[C@H](C)[C@@H](O)CC1=O)[C@H](C)C[C@@H]2OC [FK, FK-506]
- CD3 (Tcells) leukocytic infiltration (IHC) [1]: ++
- CD4 leukocytic infiltration (IHC) [1]: ++
- CD8 leukocytic infiltration (IHC) [1]: +
- ED1 (CD68) leukocytic infiltration (IHC) [1]: +
- Insulin staining of graft [1]: ++
- OX33 (B cells) leukocytic infiltration (IHC) [1]: +
- body weight lost [2]: around 5%
